Data on five compounds can be found in patent US10945978B2, “Treatment and diagnosis of melanoma” (The Rockefeller University, priority 2012, dated 2021).

Entries after “also recorded” stand apart in the source; their conditions may differ.

Assay [1] relates to B16F10 mouse melanoma cells. The assay can be described thus: Subcutaneous B16F10 tumor growth in C57BL/6 mice. The note with it: in chow: WO-2010-0138598 Ex. 9 10 or 100 mg/kg/day, SB742881 100 mg/kg/day.
Method: Animals were palpated weekly for tumor formation, after which sizeable tumors were measured twice a week. Tumor volume was calculated as (small diameter)^2×(large diameter)/2.
In assay [2] the test system is ApoE. In words: ApoE expression by qRT-PCR in human melanoma cells. The assay is classed as cell-based. The note with it: MeWo cells, 500 nM, 1 μM or 2 μM, 48 hours. How it is done: Total RNA was extracted from various cell lines using the miRvana kit (AM1560, Applied Biosystems, Austin, Tex.). The expression levels of mature miRNAs were quantified using the Taqman miRNA expression assay (4427975-0002228, Applied Biosystems). RNU44 was used as an endogenous control for normalization. For mRNA expression analyses, 600 ng of total RNA was reverse transcribed using the cDNA First-Strand Synthesis Kit (18080-051, Invitrogen), and roughly 200 ng of the resulting cDNA was then mixed with SYBR green PCR Master Mix (4309155, Applied Biosystems) and the appropriate primers. Each reaction was performed in quadruplicate, and mRNA expression was quantified by performing real-time PCR amplification using an ABI Prism 7900HT Real-Time PCR System (Applied Biosystems). GAPDH was used as an endogenous control for normalization. The following primers were used: […]
RNA was extracted from whole cell lysates using the Total RNA Purification Kit (17200, Norgen, Thorold, Canada). 600 ng of total RNA was then reverse transcribed into cDNA using the cDNA First-Strand Synthesis Kit (18080-051, Invitrogen), and quantitative real-time PCR amplification was performed as previously described (Pencheva et al., 2012) using an ABI Prism 7900HT Real-Time PCR System (Applied Biosystems, Austin, Tex.). Each PCR reaction was carried out in quadruplicates. Gene expression was normalized to GAPDH, which was used as an endogenous control.
For every sample, 600 ng of RNA was reverse transcribed into cDNA using the cDNA First-Strand Synthesis kit (Invitrogen). Approximately 200 ng of cDNA was mixed with SYBR® green PCR Master Mix and the corresponding forward and reverse primers specific for detection of human ApoE. Each reaction was carried out in quadruplicates, and ApoE mRNA expression levels were measured by quantitative real-time PCR amplification using an ABI Prism 7900HT Real-Time PCR System (Applied Biosystems). The relative ApoE expression was determined using the ΔΔCt method. GAPDH was used as an endogenous control for normalization purposes.
On the technique in general: Quantitative PCR measures a nucleic acid by following its amplification.

Assay [3] deals with MeWo, MeWo-LM2, HT-144, SK-Mel-2 and SK-Mel-334.2 human melanoma cells. In words: Trans-well matrigel cell invasion assay, melanoma cells. The class given is cell-based. The note with it: 1 μM for 72 hours. As for the experimental part: Cancer cells were serum-starved in 0.2% FBS DMEM-based media for 12 hours. Trans-well invasion chambers (354480, BD Biosciences, Bedford, Mass.) were pre-equilibrated prior to beginning the assay by adding 0.5 mL of starvation media to the top and bottom chambers. After 30 minutes, the media in the top chamber was removed, and 0.5 mL of media containing 1×10^5 cancer cells was added into each matrigel-coated trans-well insert and incubated at 37° C. for 24 hours. For neutralization antibody and/or recombinant protein experiments, antibody/recombinant protein was added to each well at the start of the assay at the following concentrations as indicated in the figures: 5-40 μg/mL anti-ApoE 1D7 (Heart Institute, University of Ottawa), 5-40 μg/mL anti-IgG (AB-108-C, R&D Systems, Minneapolis, Minn.), 100 μM recombinant human ApoE3 (4696, BioVision, Mountain View, Calif.), and 100 μM BSA (A2153, Sigma-Aldrich). Upon completion of the assay, matrigel-coated inserts were washed with PBS, the cells at the top side of each insert were scraped off, and the inserts were fixed in 4% paraformaldehyde for 15 minutes. The inserts were then cut out and mounted onto slides using VectaShield mounting medium containing DAPI (H-1000, Vector Laboratories, Burlingame, Calif.). The basal side of each insert was imaged using an inverted fluorescence microscope (Zeiss Axiovert 40 CFL) at 5× magnification, taking three representative images for each insert. The number of invaded cells was quantified using ImageJ (NIH).
The cell invasion assay was performed as previously described in detail (Pencheva et al., 2012) using a trans-well matrigel invasion chamber system (354480, BD Biosciences). In brief, various melanoma cells were cultured in the presence of DMSO, GW3965, T0901317, or Bexarotene at 1 μM for 56 hours, after which melanoma cells were switched to starvation media (0.2% FBS) for 16 hours in the presence of each drug. Following starvation, cells were seeded into matrigel-coated trans-well inserts, and the invasion assay was allowed to proceed for 24 hours at 37° C. For ApoE antibody neutralization experiments, 40 μg/mL 1D7 anti-ApoE blocking antibody (Heart Institute, University of Ottawa, Ottawa, Canada) or 40 t g/mL anti-IgG control antibody (AB-108-C, R&D Systems, Minneapolis, Minn.) was added to each trans-well insert at the start of the assay.
The cells were then serum starved for 16 hours in 0.2% FBS media in the presence of each corresponding drug or DMSO. Following serum starvation, the cells were subjected to the trans-well invasion assay using a matrigel invasion chamber system (354480, BD Biosciences). Invasion chambers were pre-equilibrated prior to the assay by adding 0.5 mL of starvation media to the top and bottom wells. Meanwhile, cancer cells were trypsinized and viable cells were counted using trypan blue. Cancer cells were then resuspended at a concentration of 2×10^5 cells/1 mL starvation media, and 0.5 mL of cell suspension, containing 1×10^5 cells, was seeded into each trans-well. The invasion assay was allowed to proceed for 24 hours at 37° C. […] Following fixation, the inserts were washed in PBS, cut out, and mounted onto slides using VectaShield mounting medium containing DAPI nuclear stain (H-1000, Vector Laboratories). The basal side of each insert was imaged using an inverted fluorescence microscope (Zeiss Axiovert 40 CFL) at 5× magnification, and the number of DAPI-positive cells was quantified using ImageJ.

Assay [4] has as its system human umbilical vein endothelial cells (HUVEC's). The assay can be described thus: Endothelial recruitment assay (HUVEC migration towards melanoma cells). The class given is cell-based. To be noted: MeWo, HT-144, SK-Mel-2, SK-Mel-334.2; 1 μM for 72 hours. As for the experimental part:
5×10^4 cancer cells were seeded into 24-well plates approximately 24 hours prior to the start of the assay. HUVEC's were grown to 80% confluency and serum starved in EGM-2 media supplemented with 0.2% FBS for 16 hours. HUVEC's were then pulsed with Cell Tracker Red CMTPX dye (C34552, Invitrogen) for 45 minutes. Meanwhile, cancer cells were washed with PBS, 0.5 mL of 0.2% FBS EGM-2 media was added to each well, and a 3.0 μm HTS Fluoroblock insert (351151, BD Falcon, San Jose, Calif.) was placed into each well. 1×10^5 HUVEC's, resuspended in 0.5 mL of starvation media, were seeded into each trans-well insert, and the recruitment assay was allowed to proceed for 16-18 hours at 37° C. For neutralization antibody and/or recombinant protein experiments, antibody/protein was then added to each well at the appropriate concentration as indicated in the figures: 40 μg/mL anti-ApoE 1D7, 40 μg/mL anti-IgG, 100 μM rhApoE3, and 100 μM BSA. Upon completion of the assay, the inserts were processed and analyzed as described for the matrigel invasion assay above (See Matrigel Invasion Assay).
The endothelial recruitment assay was carried out as previously described (Pencheva et al., 2012; Png et al., 2012). Melanoma cells were treated with DMSO, GW3965, T0901317, or Bexarotene at 1 μM for 56 hours, after which 5×10^4 cells were seeded in a 24-well plate in the presence of each drug and allowed to attach for 16 hours prior to starting the assay. HUVEC cells were serum-starved overnight in EGM-2 media containing 0.2% FBS. The following day, 1×10^5 HUVEC cells were seeded into a 3.0 μm HTS Fluoroblock trans-well migration insert (351151, BD Falcon, San Jose, Calif.) fitted into each well containing cancer cells at the bottom. The HUVEC cells were allowed to migrate towards the cancer cells for 20 hours at 37° C., after which the inserts were processed as previously described (Pencheva et al., 2012). For ApoE antibody neutralization experiments, 40 μg/mL 1D7 anti-ApoE blocking antibody (Heart Institute, University of Ottawa, Ottawa, Canada) or 40 μg/mL anti-IgG control antibody (AB-108-C, R&D Systems, Minneapolis, Minn.) was added to each trans-well insert at the start of the assay.
Subsequently, 5×10^4 cancer cells were seeded into 24-well plates in the presence of each drug or DMSO and allowed to attach for 16 hours prior to starting the assay. Human umbilical vein endothelial cells (HUVEC cells) were serum-starved in 0.2% FBS-containing media overnight. The following day, 1×10^5 HUVEC cells were seeded into a 3.0 μm HTS Fluoroblock insert (351151, BD Falcon) fitted into each well containing the cancer cells at the bottom. The HUVEC cells were allowed to migrate towards the cancer cells for 20 hours, after which the inserts were washed in PBS, fixed in 4% PFA, labeled with DAPI, and mounted on slides. The basal side of each insert was imaged using an inverted fluorescence microscope (Zeiss Axiovert 40 CFL) at 5× magnification, and the number of DAPI-positive cells was quantified using ImageJ.

Assay [5] deals with melanoma cells (MeWo, MeWo-LM2, HT-144, SK-Mel-334.2) and endothelial cells. In words: In vitro cell proliferation, viability and serum starvation assays. The class given is cell-based, human. To be noted: MeWo, HT-144, SK-Mel-334.2; 1 μM, 5 days. As for the experimental part: To determine the effects of miR-199a or miR-1908 over-expression and combinatorial LNA-induced miRNA inhibition on cell proliferation, 2.5×10^4 cells were seeded in triplicate in 6-well plates, and viable cells were counted after 5 days. […] Viable cells were counted after 8, 24, 48, 72, and 120 hours.
The number of viable cells was counter after 8, 16, and 24 hours.
To determine the effects of GW3965, T0901317, and Bexarotene on in vitro cell growth, 2.5×10^4 melanoma cells were seeded in triplicate in 6-well plates and cultured in the presence of DMSO, GW3965, T0901317, or Bexarotene at 1 μM each. After 5 days, the number of viable and dead cells was counted using the trypan blue dye (72-57-1, Sigma-Aldrich), which selectively labels dead cells.

The subject of assay [6] is B16F10 parental and DTIC-resistant cells. In words: Tumor growth by DTIC-sensitive and DTIC-resistant B16F10 cells. The assay is classed as in vivo, mouse. The note with it: dacarbazine 50 mg/kg, i.p., daily. How it is done: First, the cells were treated with 500 μg/mL DTIC for one week. Following this initial DTIC treatment, the remaining (˜10%) viable cells were allowed to recover for one week, after which 750 rag/mL of DTIC was added to the cell media for 5 days. Subsequent to this high-dose treatment, the cells were allowed to recover in the presence of low-dose DTIC (100 jag/mL) for one week. The cells were then continuously cultured in cell media containing 200 rag/mL DTIC for at least one month prior to grafting the cells into mice. DTIC was added to fresh cancer cell media every 3 days.

As for `CC(C)(O)c1cn(-c2ccc(-c3cc(F)c(CO)c(S(C)(=O)=O)c3)cc2F)c(C(C)(C)c2c(Cl)cccc2Cl)n1` [Compound 12], the “melanoma primary tumor growth” value in assay [1] is “significantly inhibited”. The ApoE expression induction entry in assay [2] (listed as WO-2010-0138598 Ex. 9) is on record as “varied degrees of ApoE expression induction; also recorded: potently induce”. The “inhibition of in vitro cancer progression phenotypes (cell invasion, endothelial recruitment)” value in assay [3] (MeWo cells, relative to lower potency LXR agonists) is reported as “more effective”.

Take `CC(C)(O)c1cn(-c2ccc(-c3cccc(S(C)(=O)=O)c3)cc2)c(C(C)(C)c2ccccc2Cl)n1` [Compound 38]: in assay [2], the ApoE expression induction result was “varied degrees of ApoE expression induction”.

On to `Fc1ccc(-c2c3cccc(C(F)(F)F)c3nn2Cc2ccc(F)cc2Cl)cc1` [LXR-623 3], for which the ApoE expression induction result in assay [2] is “varied degrees of ApoE expression induction”.

`C=C(c1ccc(C(=O)O)cc1)c1cc2c(cc1C)C(C)(C)CCC2(C)C` [bexarotene]: the “ability of melanoma cells to recruit endothelial cells” value in assay [4] was “did not significantly affect”. The “ability of melanoma cells to invade through matrigel” value in assay [3] (MeWo, HT-144, SK-Mel-2, SK-Mel-334.2) was “suppressed invasion only in half of the melanoma lines tested”. Also, in assay [5], the “cell proliferation or cell viability rates” value is “did not affect”.

As to `CN(C)/N=N/c1[nH]cnc1C(N)=O` [dacarbazine], in assay [6], the “growth of the DTIC-sensitive parental line” value is on record as “significantly suppressed” and the “tumor growth by B16F10 DTIC-resistant cells” value is given as “did not affect”.
